Reference: patent US5364879A, “Medical uses of trioxolane and diperoxide compounds” (Cliveden Ltd., priority 1994, dated 1994)
In brackets after ≈: the same amount, converted by molar mass. Where two headings read alike, the source gives them in different places.

How the values were obtained:
[1] = test system: Leishmania major; experiment: Treatment of mice infected with Leishmania major; assay type: in vivo, Leishmania major (balb/c mice)
[2] = design: species or system New Zealand White rabbits; conditions: rabbit, in vivo
[3] = in vivo; conditions: mouse
[4] = design: species or system New Zealand White rabbits; conditions: rabbit, in vivo; remark: listed apart in the source
[5] = test system: E. coli; experiment: microbe, parasite or virus in culture; assay type: cell-based; conditions: Escherichia coli
[6] = test system: Klebisella; experiment: microbe, parasite or virus in culture; assay type: cell-based, Klebsiella spp.; conditions: Klebsiella
[7] = test system: Cryptococcus; experiment: MIC by agar diffusion method; assay type: cell-based, Cryptoccus spp.; conditions: N = 1
[8] = test system: S. aureus; experiment: microbe, parasite or virus in culture; assay type: cell-based; conditions: Staphylococcus aureus, read-out: lowest concentration inhibiting at least one isolate
[9] = test system: EPEC/ETEC; experiment: MIC in agar dilution; assay type: cell-based, Enteropathogenic/enterotoxigenic Escherichia coli; conditions: Escherichia coli, N = 5
[10] = test system: C. albicans; experiment: MIC by agar diffusion method; assay type: cell-based; conditions: Candida albicans, N = 5
[11] = test system: Tri. canis; experiment: microbe, parasite or virus in culture; assay type: cell-based, Trichophyton canis; conditions: Trichophyton
[12] = test system: N. gonorrhoea; experiment: MIC by agar diffusion method; assay type: cell-based, Neisseria gonorrhoea; conditions: Neisseria
[13] = test system: Archromobacter; experiment: MIC by agar diffusion method; assay type: cell-based; conditions: Achromobacter, N = 1
[14] = test system: Leishmania donova; design: species or system Leishmania donova (Balb/c mice); conditions: mouse, in vivo
[15] = test system: Penicillium; experiment: MIC by agar diffusion method; assay type: cell-based, Penicillium spp.; conditions: N = 1
[16] = test system: Myeloma cell line (x63 balb/c line); experiment: Effect on myeloma cell line; assay type: cell-based
[17] = test system: human spermatozoa; experiment: Effect on spermatozoa; assay type: cell-based
[18] = test system: S. aureus; experiment: microbe, parasite or virus in culture; assay type: cell-based; conditions: Staphylococcus aureus
[19] = test system: Candida; experiment: MIC in broth; assay type: cell-based, Candida spp.; conditions: N = 2
[20] = test system: Ph. verrucose; experiment: microbe, parasite or virus in culture; assay type: cell-based, Phialophora verrucose; conditions: Phialophora
[21] = test system: Shigella; experiment: microbe, parasite or virus in culture; assay type: cell-based, Shigella spp.
[22] = test system: EPEC/ETEC; experiment: MIC in broth; assay type: cell-based, Enteropathogenic/enterotoxigenic Escherichia coli; conditions: Escherichia coli, N = 5
[23] = test system: Tri. violaceum; experiment: microbe, parasite or virus in culture; assay type: cell-based, Trichophyton violaceurn; conditions: Trichophyton violaceum
[24] = test system: Candida; experiment: microbe, parasite or virus in culture; assay type: cell-based, Candida spp.
[25] = test system: Salmonella; experiment: microbe, parasite or virus in culture; assay type: cell-based, Salmonella spp.
[26] = mouse, in vivo, ip
[27] = test system: lymphocytes; experiment: Immunomodulatory activity, bone marrow examination; assay type: in vivo; conditions: Balb/c mice
[28] = test system: Candida; experiment: MIC in agar dilution; assay type: cell-based, Candida spp.; conditions: N = 2
[29] = test system: S. epidermidis; experiment: MIC by agar diffusion method; assay type: cell-based; conditions: Staphylococcus epidermidis
[30] = test system: Pseudomonas; experiment: microbe, parasite or virus in culture; assay type: cell-based, Pseudomonas spp.
[31] = test system: microorganisms which cause common infections; assay type: cell-based

Question: Which “lesions, Day 14” value ([1]; mouse, in vivo, ip) does the source give for O.O.O.O.O.O.O.O.O.O=C([O-])[C@@H]1[O][Sb](=[O])([O][Sb]2(=[O])[O][C@H]([C@H](O)CO)[C@H](O)[C@H](C(=O)[O-])[O]2)[O][C@H]([C@H](O)CO)[C@@H]1O.[Na+].[Na+].[Na+] (some centres unmarked) [Pentostam, reference compound] here?
Answer: Large lesions

Question: And the “number dead, Day 14” value ([1]; mouse, in vivo, ip)?
Answer: 1

Question: And the “palate involvement, Day 14” value ([1]; mouse, in vivo, ip)?
Answer: involvement

Question: Which “Primary Irritation Index (PII)” value [2] does the source give for CC1(C)OOC(CCC(C)(O)C2OCOO2)O1 (centres unmarked) [linalool trioxolane] here?
Answer: 1.0

Question: And the LD50 [3]?
Answer: ~3000 mg/kg

Question: And the ocular irritation [4]?
Answer: non-irritant

Question: Which results are given for CCC1OOC(CCO)O1 (stereo not drawn) [trioxolane derivative of cis 3-hexene-1-ol]?
Answer: MIC [5]: 120 µg/mL (≈ 810 µM); MIC [6]: 7 µg/mL (≈ 47.2 µM); lesions, Day 0 ([1]; IP, n = 15/group): Large lesions; lesions, Day 14 ([1]; IP, n = 15/group): Lesions scabbed; number dead, Day 14 ([1]; IP, n = 15/group): 2; number with palate involvement, Day 14 ([1]; IP, n = 15/group): 2; general condition, Day 14 ([1]; topical, n = 15/group): Animals healthy and; lesions, Day 0 ([1]; topical, n = 15/group): Large lesions; MIC [7]: 15 µg/mL (≈ 101 µM); MIC [8]: 31 µg/mL (≈ 209 µM); MIC [9]: 31 µg/mL (≈ 209 µM); MIC [10]: 31 µg/mL (≈ 209 µM); MIC [11]: 150 µg/mL (≈ 1010 µM); MIC ([12]; N = 49, number in parentheses, read-out: lowest concentration inhibiting at least one isolate): 1.9 µg/mL (≈ 12.8 µM); MIC ([12]; N = 49, read-out: MIC): 3.5 µg/mL (≈ 23.6 µM); MIC [13]: 60 µg/mL (≈ 405 µM); clearing parasites from the viscera compared with Pentostam [14]: perform better than Pentostam; MIC [15]: 310 µg/mL (≈ 2090 µM); time within which myeloma cell line was killed [16]: ≤ 48 h; time within which human spermatozoa were killed [17]: ≤ 1 min; MBC [18]: 1250 µg/mL (≈ 8440 µM); MIC [19]: 310 µg/mL (≈ 2090 µM); MIC [20]: 150 µg/mL (≈ 1010 µM); MBC [21]: 1250 µg/mL (≈ 8440 µM); MIC [22]: 620 µg/mL (≈ 4180 µM); MIC [23]: 150 µg/mL (≈ 1010 µM); MBC [24]: 1250 µg/mL (≈ 8440 µM); MBC [25]: 2500 µg/mL (≈ 16900 µM); minimum lethal dose [26]: 3000 mg/kg; tolerability in studies on LD50 [26]: highly tolerated; new clones of lymphocytes in bone marrow vs mice without any drug [27]: increase in new clones of lymphocytes; MIC [28]: 31 µg/mL (≈ 209 µM); MIC ([29]; read-out: lowest concentration inhibiting at least one isolate): 31 µg/mL (≈ 209 µM); MIC ([29]; agar diffusion, N = 14, read-out: MIC): 25 µg/mL (≈ 169 µM); MBC [30]: 1250 µg/mL (≈ 8440 µM); activity compared with Geraniol trioxolane [31]: more active than Geraniol trioxolane; activity compared with conventional drugs [31]: more active than conventional drugs; direct bioactivity, agar vs broth [31]: better in agar than in broth methods; effect of water on direct bioactivity [31]: significantly reduces; relationship with resistance and sensitivity to conventional antibiotics [31]: no relationship; sensitivity of all the microorganisms tested [31]: uniformly sensitive
